Assay results published in patent US9253980B2 (priority 2011, dated 2016).

Tested on: Puccinia recondita
Test: Control of brown rust on wheat caused by Puccinia recondita (greenhouse, comparative)
Assay type: in vivo
Details: 500 ppm spray to run-off one day before inoculation; % diseased leaf area, visually assessed; untreated control 90
Procedure: The spray solutions were prepared in several steps:
The stock solution were prepared: a mixture of acetone and/or dimethylsulfoxide and the wetting agent/emulsifier Wettol, which is based on ethoxylated alkylphenoles, in a relation (volume) solvent-emulsifier of 99 to 1 was added to 25 mg of the compound to give a total of 5 ml. Water was then added to total volume of 100 ml.
This stock solution was diluted with the described solvent-emulsifier-water mixture to the given concentration.
The first two developed leaves of pot-grown wheat seedling were sprayed to run-off with an aqueous suspension, containing 500 ppm of active ingredient as described below. The next day the plants were inoculated with spores of Puccinia recondita. To ensure the success the artificial inoculation, the plants were transferred to a humid chamber without light and a relative humidity of 95 to 99% and 20 to 24° C. for 24 h. Then the trial plants were cultivated for 6 days in a greenhouse chamber at 20-24° C. and a relative humidity between 65 and 70%. The extent of fungal attack on the leaves was visually assessed as % diseased leaf area.

| SMILES | Disease level (%) |
| --- | --- |
| Cn1c(=O)c2sc3c(=O)n(C)c(=O)c3sc2c1=O | 80 |
| COn1c(=O)c2sc3c(=O)n(OC)c(=O)c3sc2c1=O [I-2, 2.6-Dimethoxy-1H.5H-[1.4]dithiino[2,3-c:5.6-c′]dipyrrol-1.3.5.7(2H.6H)tetrone] | 45 |
